Among the data in PubChem BioAssay (NCI) are TGI values, retold here.

Among the test systems are KM12 colon; A498 renal; SNB-75 CNS; ACHN renal; IGROV1 ovarian; SF-295 CNS; RXF 393 renal; MDA-N; NCI/ADR-RES ovarian; NCI-H226 lung; PC-3 prostate; NCI-H460 lung; DU-145 prostate; HCT-116 colon; MALME-3M melanoma; MDA-MB-435; NCI-H522 lung; RPMI-8226 leukemia; BT-549 breast; SK-MEL-5 melanoma.
Holding throughout (assay): growth of human tumour cells (NCI), 48 h

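Each compound was tested at five concentrations against cells in 96-well plates for 48 hours. TGI denotes the concentration required for complete inhibition of growth.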

`O=c1c2cc(-c3ccccc3)cnc2sn1-c1ccc(Oc2ccccc2)cc1`: the TGI in the test on KM12 colon is more than 100 µM; in the test with A498 renal, 78.6 µM; in the test with SNB-75 CNS it was 75.9 µM; with ACHN renal, more than 100 µM; in the test with IGROV1 ovarian it was more than 100 µM; in the test on SF-295 CNS, more than 100 µM. Moreover, the TGI in the test on RXF 393 renal was 44.6 µM; in the test on MDA-N, more than 100 µM; in the test on NCI/ADR-RES ovarian, 80.1 µM; in the test with NCI-H226 lung, more than 100 µM; in the test on PC-3 prostate, 52.1 µM; in the test with NCI-H460 lung, more than 100 µM. In addition, the TGI in the test with DU-145 prostate, in the test with HCT-116 colon, in the test with MALME-3M melanoma, in the test on MDA-MB-435, in the test with NCI-H522 lung and with RPMI-8226 leukemia was more than 100 µM each time. The compound further had a TGI in the test on BT-549 breast of 62.4 µM.

As to `COC(=O)Cc1c(/C=C/C(C)(C)n2cnc(CCN3C(=O)CCC3=O)c2)[nH]c2ccccc12`, the TGI with KM12 colon, in the test on A498 renal, in the test on SNB-75 CNS, in the test on ACHN renal, with IGROV1 ovarian and in the test on SF-295 CNS was more than 100 µM each time. The TGI with RXF 393 renal, with MDA-N, in the test on NCI/ADR-RES ovarian, in the test with NCI-H226 lung, in the test with PC-3 prostate and in the test on SK-MEL-5 melanoma was more than 100 µM throughout. In addition, the TGI in the test on NCI-H460 lung was more than 100 µM; in the test on DU-145 prostate, more than 100 µM; in the test on HCT-116 colon, more than 100 µM; with MALME-3M melanoma it was 97.8 µM; in the test with MDA-MB-435, more than 100 µM; with NCI-H522 lung it was more than 100 µM. The TGI in the test with BT-549 breast is more than 100 µM.

In the case of `CSc1nc2c(c(=O)[nH]1)N=C(c1ccc(Cl)cc1)CC(c1ccccc1)N2` (stereo not given), the TGI is 30 µM in the test with KM12 colon; more than 100 µM with A498 renal; 24.7 µM in the test with SNB-75 CNS; 29 µM in the test with ACHN renal; 29.5 µM in the test on IGROV1 ovarian; 32.6 µM with SF-295 CNS. Further, the TGI stood at 34.4 µM in the test with RXF 393 renal; 31.4 µM in the test on MDA-N; 29.5 µM in the test with NCI/ADR-RES ovarian; 58.7 µM with NCI-H226 lung; 45.3 µM with PC-3 prostate; 26.1 µM in the test with SK-MEL-5 melanoma. Also, the TGI in the test with DU-145 prostate was determined as 42.1 µM; in the test with HCT-116 colon, 51.4 µM; in the test on MALME-3M melanoma it was 42.8 µM; in the test on MDA-MB-435, 38.3 µM; with NCI-H522 lung it was 29.4 µM; in the test with RPMI-8226 leukemia it was 40.1 µM. The compound further gave a TGI with BT-549 breast of 45.4 µM.

Regarding `CC1OC(OC2C(CO)OC(O[C@H]3CC[C@@]4(C)C(=CC[C@H]5[C@@H]6C[C@@H]7O[C@](O)(CC[C@H](CO)COC8OC(CO)C(O)C(O)C8O)[C@@H](C)[C@@H]7[C@@]6(C)CC[C@@H]54)C3)C(OC3OC(C)C(O)C(O)C3O)C2O)C(O)C(O)C1O` (stereo not given in full), the TGI in the test with KM12 colon, in the test on A498 renal, in the test on SNB-75 CNS, in the test on ACHN renal, with IGROV1 ovarian and in the test with SF-295 CNS was more than 100 µM in each case. For the same compound, the TGI in the test with RXF 393 renal, in the test on MDA-N, in the test with NCI/ADR-RES ovarian, with PC-3 prostate, in the test on SK-MEL-5 melanoma and with NCI-H460 lung was more than 100 µM each time. In addition, the TGI in the test on DU-145 prostate, in the test with HCT-116 colon, in the test on MALME-3M melanoma, in the test with MDA-MB-435, in the test with NCI-H522 lung and in the test on RPMI-8226 leukemia was more than 100 µM throughout. In the test on BT-549 breast, this compound showed a TGI of more than 100 µM.

Regarding `CC(=O)C1=C(C)N2C(=NC3=C(CCc4ccccc43)C2c2cccc(Br)c2)S1` (stereo not given), the TGI with KM12 colon, in the test on A498 renal, in the test on SNB-75 CNS, in the test with ACHN renal, in the test with IGROV1 ovarian and in the test with SF-295 CNS was more than 100 µM in each case. Moreover, the TGI in the test on RXF 393 renal, in the test with MDA-N, in the test on NCI/ADR-RES ovarian, in the test with NCI-H226 lung, in the test with PC-3 prostate and in the test on SK-MEL-5 melanoma was more than 100 µM each time. Also, the TGI in the test with DU-145 prostate is more than 100 µM; in the test with HCT-116 colon, more than 100 µM; in the test on MDA-MB-435, more than 100 µM; with RPMI-8226 leukemia, 53.5 µM; with BT-549 breast, more than 100 µM.

As to `O=[N+]([O-])c1ccc(N/N=C(\c2ccccc2)c2ccccn2)nc1`, the TGI with KM12 colon is more than 45.8 µM; with A498 renal, more than 100 µM; in the test on SNB-75 CNS, 28.4 µM; in the test on ACHN renal, 18.7 µM; with IGROV1 ovarian it was 20.5 µM; with SF-295 CNS, 25.7 µM. Besides, the TGI in the test with RXF 393 renal was 31.8 µM; in the test on MDA-N, more than 100 µM; in the test with NCI/ADR-RES ovarian, 2.02 µM; in the test with PC-3 prostate, more than 44.7 µM; in the test on SK-MEL-5 melanoma it was 26.5 µM; in the test on NCI-H460 lung it was 22.8 µM. The TGI in the test with DU-145 prostate was 36.8 µM; in the test on HCT-116 colon, 29.8 µM; in the test with MALME-3M melanoma, 14.4 µM; in the test on MDA-MB-435, more than 95.3 µM; in the test with NCI-H522 lung, 12.7 µM; in the test with RPMI-8226 leukemia it was more than 100 µM. The same compound gave a TGI in the test with BT-549 breast of 87.1 µM.

`Cc1sc(Nc2ccccc2[N+](=O)[O-])c(C#N)c1C`: the TGI is more than 100 µM with KM12 colon; more than 100 µM in the test on A498 renal; 39.9 µM in the test on SNB-75 CNS; more than 100 µM with ACHN renal; more than 100 µM with SF-295 CNS; 57.1 µM with RXF 393 renal. The TGI with MDA-N is more than 100 µM; with NCI/ADR-RES ovarian it was 96.6 µM; with NCI-H226 lung, more than 100 µM; in the test on PC-3 prostate, more than 100 µM; in the test on NCI-H460 lung, more than 100 µM; in the test on DU-145 prostate it was more than 100 µM. For the same compound, the TGI in the test on HCT-116 colon is more than 100 µM; with MALME-3M melanoma, more than 100 µM; in the test on MDA-MB-435, more than 100 µM; in the test on NCI-H522 lung, 20.9 µM; in the test on RPMI-8226 leukemia it was more than 100 µM; in the test with BT-549 breast, 57.9 µM.
